What was measured:
Assay in all cases: drug sensitivity score (DSS2, normalised partial AUC of dose-response, 72 h CellTiter-Glo viability) (DSS (dimensionless)); higher = more sensitive (stronger growth inhibition / cytotoxicity); extreme values may be limits of the assay
CAF#7 = tested on: CAF#7 (primary prostate cancer-associated fibroblasts of myCAF-like type)
Procedure, shortened: (§1)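 In BREEZE, the drug sensitivity score was derived as a partial area under a fitted logistic dose–response curve over the log of that curve's upper asymptote; a higher score marks a more sensitive response. The input came from low-passage primary prostate cancer-associated fibroblasts, PF179T, WPMY-1, LNCaP and 22Rv1 cells, each seeded into 384-well plates with compounds pre-dispensed at five doses spanning a 10,000-fold range. CellTiter-Glo 2.0 luminescence after 72 h gave viability, which was normalized to vehicle and positive-control wells.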

CAF#4 = tested on: CAF#4 (primary prostate cancer-associated fibroblasts of iCAF-like type)
Procedure, shortened: as §1

22Rv1 = tested on: 22Rv1
Procedure, shortened: as §1

WPMY-1 = tested on: WPMY-1
Procedure, shortened: as §1

PF179T = tested on: PF179T
Procedure, shortened: as §1

CAF#5 = tested on: CAF#5 (primary prostate cancer-associated fibroblasts of myCAF-like type)
Procedure, shortened: as §1

CAF#3 = tested on: CAF#3 (primary prostate cancer-associated fibroblasts of myCAF-like type)
Procedure, shortened: as §1

CAF#6 = tested on: CAF#6 (primary prostate cancer-associated fibroblasts of iCAF-like type)
Procedure, shortened: as §1

CAF#2 = tested on: CAF#2 (primary prostate cancer-associated fibroblasts of iCAF-like type)
Procedure, shortened: as §1

CAF#1 = tested on: CAF#1 (primary prostate cancer-associated fibroblasts of myCAF-like type)
Procedure, shortened: as §1

LNCAP = tested on: LNCAP
Procedure, shortened: as §1

| SMILES | drug sensitivity score (CAF#7) | drug sensitivity score (CAF#4) | drug sensitivity score (22Rv1) | drug sensitivity score (WPMY-1) | drug sensitivity score (PF179T) | drug sensitivity score (CAF#5) | drug sensitivity score (CAF#3) | drug sensitivity score (CAF#6) | drug sensitivity score (CAF#2) | drug sensitivity score (CAF#1) | drug sensitivity score (LNCAP) |
| --- | --- | --- | --- | --- | --- | --- | --- | --- | --- | --- | --- |
| O=C(O)CCCCC(CCSCc1ccccc1)SCc1ccccc1 (configuration not stated) [Devimistat] (tested concentration range 1-10000 nM) | 0 | 0 | 0 | 0 | 0 | 0 | 0 | 0 | 0 | 0 | 0 |
| C[C@@H]1C[C@H]2[C@@H]3CCC4=CC(=O)C=C[C@]4(C)[C@@]3(F)[C@@H](O)C[C@]2(C)[C@@]1(O)C(=O)CO [Dexamethasone] (tested concentration range 1-10000 nM) | 0.3 | 0 | 0 | 0 | 0 | 0 | 0 | 0 | 0 | 0 | 0 |
| C[C@H]1O[C@@H](O[C@H]2[C@@H](O)C[C@H](O[C@H]3[C@@H](O)C[C@H](O[C@H]4CC[C@@]5(C)[C@H](CC[C@@H]6[C@@H]5C[C@@H](O)[C@]5(C)[C@@H](C7=CC(=O)OC7)CC[C@]65O)C4)O[C@@H]3C)O[C@@H]2C)C[C@H](O)[C@@H]1O [Digoxin] (tested concentration range 0.1-1000 nM) | 11.2 | 19.4 | 14.4 | 14.7 | 13.6 | 13.4 | 8.7 | 10.8 | 13.8 | 10.2 | 12 |
| CCc1cnn2c(NCc3ccc[n+]([O-])c3)cc(N3CCCC[C@H]3CCO)nc12 [Dinaciclib] (tested concentration range 0.1-1000 nM) | 15.9 | 13 | 21.5 | 18.9 | 10.6 | 18 | 12.3 | 14.2 | 18.2 | 18.5 | 27.6 |
| CCN(CC)C(=S)SSC(=S)N(CC)CC [Disulfiram] (tested concentration range 5-50000 nM) | 0.1 | 0.9 | 0 | 0 | 0 | 6.6 | 0 | 0 | 3.7 | 5 | 0.1 |
| CC(=O)O[C@@]12CO[C@@H]1C[C@H](O)[C@@]1(C)C(=O)[C@H](O)C3=C(C)[C@@H](OC(=O)[C@H](O)[C@@H](NC(=O)OC(C)(C)C)c4ccccc4)C[C@@](O)([C@@H](OC(=O)c4ccccc4)[C@H]21)C3(C)C [Docetaxel] (tested concentration range 0.1-1000 nM) | 25.6 | 14.2 | 25.4 | 28.3 | 19.7 | 17.2 | 12.8 | 16.7 | 20.6 | 16.4 | 34.6 |
| Cc1ccc(-n2nc(C(C)(C)C)cc2NC(=O)Nc2ccc(OCCN3CCOCC3)c3ccccc23)cc1 [Doramapimod] (tested concentration range 1-10000 nM) | 1.4 | 0 | 2.5 | 0 | 2.1 | 0.6 | 1.2 | 0.9 | 2.7 | 1.9 | 5.4 |
| CN1CCN(c2ccc3nc(-c4c(N)c5c(F)cccc5[nH]c4=O)[nH]c3c2)CC1 [Dovitinib] (tested concentration range 1-10000 nM) | 0 | 0 | 0.2 | 0 | 0 | 0.8 | 0.7 | 0 | 2.6 | 0.2 | 0.3 |
| COc1cccc2c1C(=O)c1c(O)c3c(c(O)c1C2=O)C[C@@](O)(C(=O)CO)C[C@@H]3O[C@H]1C[C@H](N)[C@H](O)[C@H](C)O1 [Doxorubicin] (tested concentration range 0.1-1000 nM) | 0 | 2.6 | 12.2 | 9.8 | 7.5 | 6.7 | 0 | 0 | 7.8 | 6.5 | 0 |
| C[C@H](Nc1ncnc2nc[nH]c12)c1cc2cccc(Cl)c2c(=O)n1-c1ccccc1 [Duvelisib] (tested concentration range 0-500 nM) | 1.9 | 1.7 | 0 | 0.5 | 1.7 | 2.3 | 3.4 | 1.3 | 1 | 1.1 | 11 |
| NC(=O)/C(=C/n1cnc(-c2cc(C(F)(F)F)cc(C(F)(F)F)c2)n1)c1cncnc1 [Eltanexor] (tested concentration range 1-10000 nM) | 14.4 | 15.5 | 31.1 | 27.5 | 18.2 | 16.8 | 10.8 | 12.1 | 22.8 | 14.5 | 28.6 |
| CC(C)(O)CNc1nc(Nc2ccnc(C(F)(F)F)c2)nc(-c2cccc(C(F)(F)F)n2)n1 [Enasidenib] (tested concentration range 1-10000 nM) | 0 | 0 | 1.7 | 0 | 0 | 0 | 0.4 | 0 | 0 | 0 | 1.2 |
| COC(=O)N[C@@H](C)CNc1nccc(-c2cn(C(C)C)nc2-c2cc(Cl)cc(NS(C)(=O)=O)c2F)n1 [Encorafenib] (tested concentration range 0.1-1000 nM) | 1.3 | 0.5 | 2.3 | 0 | 0.6 | 0.7 | 2 | 0.9 | 0 | 0.6 | 2.3 |
| C[C@@H]1CN(C(=O)c2ccc(NC(=O)c3cc(O[C@H](C)c4c(Cl)ccc(F)c4Cl)c(N)nn3)cc2)C[C@H](C)N1 [Ensartinib] (tested concentration range 0.1-1000 nM) | 0.8 | 0.7 | 2.1 | 3 | 2.3 | 4.1 | 2.7 | 2.2 | 3.1 | 2.2 | 1.4 |
| Nc1ccccc1NC(=O)c1ccc(CNC(=O)OCc2cccnc2)cc1 [Entinostat] (tested concentration range 1-10000 nM) | 3.5 | 4.8 | 10.2 | 8.5 | 8.1 | 7.4 | 2.4 | 2.2 | 8.5 | 5 | 11.6 |
| CN1CCN(c2ccc(C(=O)Nc3n[nH]c4ccc(Cc5cc(F)cc(F)c5)cc34)c(NC3CCOCC3)c2)CC1 [Entrectinib] (tested concentration range 0.1-1000 nM) | 2.1 | 0 | 1.1 | 0.9 | 1 | 0.8 | 2.1 | 0.7 | 1.9 | 1.3 | 1 |
| CNC(=O)c1ccc(N2C(=S)N(c3ccc(C#N)c(C(F)(F)F)c3)C(=O)C2(C)C)cc1F [Enzalutamide] (tested concentration range 1-10000 nM) | 0 | 2.2 | 0 | 0 | 0.4 | 2.8 | 0 | 0.5 | 2.3 | 3.9 | 2.6 |
| Cn1cc(C2=C(c3cn(C4CCN(Cc5ccccn5)CC4)c4ccccc34)C(=O)NC2=O)c2ccccc21 [Enzastaurin] (tested concentration range 1-10000 nM) | 0 | 1.1 | 4.2 | 5.2 | 2.3 | 0 | 0 | 1.1 | 2.1 | 0 | 4.7 |
| NS(=O)(=O)NCCNc1nonc1/C(=N/O)Nc1ccc(F)c(Br)c1 [Epacadostat] (tested concentration range 1-10000 nM) | 1.1 | 2 | 0 | 0.2 | 0.5 | 0.9 | 0 | 0 | 1.1 | 0 | 0 |
| COc1cccc2c1C(=O)c1c(O)c3c(c(O)c1C2=O)C[C@@](O)(C(=O)CO)C[C@@H]3O[C@H]1C[C@H](N)[C@@H](O)[C@H](C)O1 [Epirubicin] (tested concentration range 0.1-1000 nM) | 7.9 | 2.8 | 10.1 | 9.5 | 6.7 | 4.4 | 3.7 | 7 | 6.2 | 4.8 | 15.7 |
| COCC1(CO)C(=O)C2CCN1CC2 (configuration not stated) [Eprenetapopt] (tested concentration range 1-10000 nM) | 0.2 | 0 | 0 | 0 | 0 | 0.4 | 0 | 0 | 0 | 0.1 | 0 |
| COc1cc(OC)cc(N(CCNC(C)C)c2ccc3ncc(-c4cnn(C)c4)nc3c2)c1 [Erdafitinib] (tested concentration range 0.1-1000 nM) | 15 | 8.8 | 0 | 0 | 7.2 | 2.7 | 6.2 | 8 | 4.8 | 5.9 | 0 |

Source: the supplement of paper PMC12592484
